Each structure is given as a SMILES string.

We go through 29 compounds from US8586747B2, “3,3-dimethyl tetrahydroquinoline derivatives” (Hoffmann-La Roche Inc., priority 2010, dated 2013).

For this test, the system named is AMP-activated protein kinase (AMPK). The experiment in a line: ADP Quest assay for AMPK activators. Further details: key: fold AMPK activation with vs without activator at 30 µM. Conditions: fold of AMPK activation to phosphorylate SAMS peptide without and with an activator at the concentration of 30 µM. The test is classed as biochemical. The method, then:
ADP Quest™ Assay for AMPK Activators
This method evaluates AMP-activated protein kinase (AMPK) activity through detecting the accumulation of ADP product using an ADP Quest kit and determining the E30 values of the small molecular AMPK activators. ADP Quest kit (DiscoveRx, Fremont, Calif.) is stored at −20° C. before use. Before an experiment, thaw the kit (include assay buffer, ADP standard solution, reagent A and reagent B) and equilibrate to room temperature. Dispense the ADP Quest reagents into single-use aliquots and store at −20° C. The compound concentrations typically range from 0 µM to 100 µM by 2-fold dilution. AMP concentrations range from […] to 1 mM as the reference control. In an assay, thaw and equilibrate the assay buffer, reagent A and reagent B to room temperature for 30 minutes prior to use. Mix ATP, SAMS peptide substrate and compound, and place them into the 384-well assay plate. Add reagent A and B based on the assay kit protocol. Incubate the assay plate at room temperature for 30 minutes after addition the mixture followed by the addition of AMPK protein (Invitrogen, CA) to initiate the AMPK phosphorylation reaction. At the same time, reactions with AMPK activator AMP in the absence of enzyme is included as blank control. The reaction fluorescence signal is monitored and recorded on Envision in kinetic mode with the excitation wavelength of 530 nm and emission wavelength of 590 nm. The E30 value, defined as the fold of AMPK activation to phosphorylate SAMS peptide without and with an activator at the concentration of 30 µM, is calculated and analyzed using Prism 5.0.
As to `CC1(C)Cc2cc(C(=O)NS(=O)(=O)C3CC3)ccc2NC1c1ccc(F)c(N2CCOCC2)c1` (centres unmarked) [Example 58, Cyclopropanesulfonic acid [2-(4-fluoro-3-morpholin-4-yl-phenyl)-3,3-dimethyl-1,2,3,4-tetrahydro-quinoline-6-carbonyl]-amide], the E30 is reported as 1.22.

With `CC1(C)Cc2cc(C(=O)NS(C)(=O)=O)ccc2NC1c1ccc(F)c(N2CCOCC2)c1` (centres unmarked) [Example 59, N-[2-(4-Fluoro-3-morpholin-4-yl-phenyl)-3,3-dimethyl-1,2,3,4-tetrahydro-quinoline-6-carbonyl]-methanesulfonamide], the E30 is on record as 1.2. In the case of `Cc1ccc(F)cc1C1Nc2ccc(C(=O)NS(=O)(=O)C3CC3)cc2CC1(C)C` (centres unmarked) [Example 60, Cyclopropanesulfonic acid [2-(5-fluoro-2-methyl-phenyl)-3,3-dimethyl-1,2,3,4-tetrahydro-quinoline-6-carbonyl]-amide] it was 1.2.

`CC1(C)Cc2cc(C(=O)NS(C)(=O)=O)ccc2NC1c1cc(F)cc(N2CCCC2)c1` (centres unmarked) [Example 61, N-[2-(3-Fluoro-5-pyrrolidin-1-yl-phenyl)-3,3-dimethyl-1,2,3,4-tetrahydro-quinoline-6-carbonyl]-methanesulfonamide] returned an E30 of 1.61. As for `CC1(C)Cc2cc(C(=O)NS(=O)(=O)C3CC3)ccc2NC1c1cc(F)cc(N2CCCC2)c1` (centres unmarked) [Example 62, Cyclopropanesulfonic acid [2-(3-fluoro-5-pyrrolidin-1-yl-phenyl)-3,3-dimethyl-1,2,3,4-tetrahydro-quinoline-6-carbonyl]-amide], the E30 is 1.61. To `Cc1cc(C2Nc3ccc(C(=O)O)cc3CC2(C)C)cc(N2CCOCC2)c1` (centres unmarked) [Example 63, 3,3-Dimethyl-2-(3-methyl-5-morpholin-4-yl-phenyl)-1,2,3,4-tetrahydro-quinoline-6-carboxylic acid] belongs 1.56.

Take `Cc1cc(C2Nc3ccc(C(=O)NS(=O)(=O)C4CC4)cc3CC2(C)C)cc(N2CCOCC2)c1` (centres unmarked) [Example 64, Cyclopropanesulfonic acid [3,3-dimethyl-2-(3-methyl-5-morpholin-4-yl-phenyl)-1,2,3,4-tetrahydro-quinoline-6-carbonyl]-amide]: the E30 amounted to 1.48. In the case of `Cc1cc(C2Nc3ccc(C(=O)NS(C)(=O)=O)cc3CC2(C)C)cc(N2CCOCC2)c1` (centres unmarked) [Example 65, N-[3,3-Dimethyl-2-(3-methyl-5-morpholin-4-yl-phenyl)-1,2,3,4-tetrahydro-quinoline-6-carbonyl]-methanesulfonamide] it was 1.46; in that of `COc1cc(C2Nc3ccc(C(=O)O)cc3CC2(C)C)cc(N2CCOCC2)c1` (centres unmarked) [Example 66, 2-(3-Methoxy-5-morpholin-4-yl-phenyl)-3,3-dimethyl-1,2,3,4-tetrahydro-quinoline-6-carboxylic acid], 1.42; in that of `COc1cc(C2Nc3ccc(C(=O)NS(=O)(=O)C4CC4)cc3CC2(C)C)cc(N2CCOCC2)c1` (centres unmarked) [Example 67, Cyclopropanesulfonic acid [2-(3-methoxy-5-morpholin-4-yl-phenyl)-3,3-dimethyl-1,2,3,4-tetrahydro-quinoline-6-carbonyl]-amide], 1.38.

On to `COc1cc(C2Nc3ccc(C(=O)NS(C)(=O)=O)cc3CC2(C)C)cc(N2CCOCC2)c1` (centres unmarked) [Example 68, N-[2-(3-Methoxy-5-morpholin-4-yl-phenyl)-3,3-dimethyl-1,2,3,4-tetrahydro-quinoline-6-carbonyl]-methanesulfonamide], for which the E30 is given as 1.33.

Turning to `CC1(C)Cc2cc(C(=O)NS(C)(=O)=O)ccc2NC1c1cc(C#N)cc(N2CCOCC2)c1` (centres unmarked) [Example 69, N-[2-(3-Cyano-5-morpholin-4-yl-phenyl)-3,3-dimethyl-1,2,3,4-tetrahydro-quinoline-6-carbonyl]-methanesulfonamide], the E30 came out at 1.28. With `CC1(C)Cc2cc(C(=O)NS(=O)(=O)C3CC3)ccc2NC1c1cc(F)cc(C2CCCCC2)c1` (centres unmarked) [Example 70, Cyclopropanesulfonic acid [2-(3-cyclohexyl-5-fluoro-phenyl)-3,3-dimethyl-1,2,3,4-tetrahydro-quinoline-6-carbonyl]-amide], the E30 is on record as 1.23. To `CC1(C)Cc2cc(C(=O)O)ccc2NC1c1cc(F)cc(N2CCNCC2)c1` (centres unmarked) [Example 71, 2-(3-Fluoro-5-piperazin-1-yl-phenyl)-3,3-dimethyl-1,2,3,4-tetrahydro-quinoline-6-carboxylic acid] belongs 1.22; to `CC1(C)Cc2cc(C(=O)O)ccc2NC1c1ccc(N2CCOCC2)cc1` (centres unmarked) [Example 72, 3,3-Dimethyl-2-(4-morpholin-4-yl-phenyl)-1,2,3,4-tetrahydro-quinoline-6-carboxylic acid], 1.21. On to `CC1(C)Cc2cc(C(=O)NS(=O)(=O)C3CC3)ccc2NC1c1ccc(N2CCOCC2)cc1` (centres unmarked) [Example 73, Cyclopropanesulfonic acid [3,3-dimethyl-2-(4-morpholin-4-yl-phenyl)-1,2,3,4-tetrahydro-quinoline-6-carbonyl]-amide], for which the E30 is 1.21. `CC1(C)Cc2cc(C(=O)NS(C)(=O)=O)ccc2NC1c1ccc(N2CCOCC2)cc1` (centres unmarked) [Example 74, N-[3,3-Dimethyl-2-(4-morpholin-4-yl-phenyl)-1,2,3,4-tetrahydro-quinoline-6-carbonyl]-methanesulfonamide] had an E30 of 1.19. To `CC(C)N1CCN(c2cc(F)cc(C3Nc4ccc(C(=O)NS(C)(=O)=O)cc4CC3(C)C)c2)CC1` (centres unmarked) [Example 75, N-{2-[3-Fluoro-5-(4-isopropyl-piperazin-1-yl)-phenyl]-3,3-dimethyl-1,2,3,4-tetrahydro-quinoline-6-carbonyl}-methanesulfonamide] belongs 1.19; to `CC1(C)Cc2cc(C(=O)O)ccc2NC1c1cc(F)cc(N2CCCC2=O)c1` (centres unmarked) [Example 76, 2-[3-Fluoro-5-(2-oxo-pyrrolidin-1-yl)-phenyl]-3,3-dimethyl-1,2,3,4-tetrahydro-quinoline-6-carboxylic acid], 1.47. In the case of `CC1(C)Cc2cc(C(=O)NS(C)(=O)=O)ccc2NC1c1cc(F)cc(N2CCCC2=O)c1` (centres unmarked) [Example 77, N-{2-[3-fluoro-5-(2-oxo-pyrrolidin-1-yl)-phenyl]-3,3-dimethyl-1,2,3,4-tetrahydro-quinoline-6-carbonyl}-methanesulfonamide] it was 1.42; in that of `COC(=O)c1cc(Cl)cc2c1NC(c1cccc(NC(C)(C)C(=O)O)c1)C(C)(C)C2` (centres unmarked) [Example 78, 2-[3-(1-Carboxy-1-methyl-ethylamino)-phenyl]-6-chloro-3,3-dimethyl-1,2,3,4-tetrahydro-quinoline-8-carboxylic acid methyl ester], 1.79. The compound `CNC(=O)C(C)(C)Nc1cccc(C2Nc3c(cc(Cl)cc3C(=O)O)CC2(C)C)c1` (centres unmarked) [Example 79, 6-Chloro-3,3-dimethyl-2-[3-(1-methyl-1-methylcarbamoyl-ethylamino)-phenyl]-1,2,3,4-tetrahydro-quinoline-8-carboxylic acid] displayed an E30 of 1.33. Consider `CC(C)(Nc1cccc(C2Nc3c(cc(Cl)cc3C(=O)O)CC2(C)C)c1)C(=O)O` (centres unmarked) [Example 80, 2-[3-(1-Carboxy-1-methyl-ethylamino)-phenyl]-6-chloro-3,3-dimethyl-1,2,3,4-tetrahydro-quinoline-8-carboxylic acid], for which the E30 is 1.72. As to `CC(=O)N1CCN(c2cccc(C3Nc4c(cc(Cl)cc4C(=O)O)CC3(C)C)c2)CC1` (centres unmarked) [Example 81, 2-[3-(4-Acetyl-piperazin-1-yl)-phenyl]-6-chloro-3,3-dimethyl-1,2,3,4-tetrahydro-quinoline-8-carboxylic acid], the E30 is 2.85.

With `Cc1ccccc1N1CCN(c2cccc(C3Nc4c(cc(Cl)cc4C(=O)O)CC3(C)C)c2)CC1` (centres unmarked) [Example 82, 6-Chloro-3,3-dimethyl-2-[3-(4-o-tolyl-piperazin-1-yl)-phenyl]-1,2,3,4-tetrahydro-quinoline-8-carboxylic acid], the E30 was determined as 1.5.

In turn, `CC(C)(C)c1ccc(-c2cccc(C3Nc4ccc(C(=O)NS(C)(=O)=O)cc4CC3(C)C)c2)cc1` (centres unmarked) [Example 83, N-[2-(4′-tert-Butyl-biphenyl-3-yl)-3,3-dimethyl-1,2,3,4-tetrahydro-quinoline-6-carbonyl]-methanesulfonamide] yielded an E30 of 1.35. To `CC(C)Oc1ccc(-c2cccc(C3Nc4ccc(C(=O)O)cc4CC3(C)C)c2)cc1` (centres unmarked) [Example 84, 2-(4′-Isopropoxy-biphenyl-3-yl)-3,3-dimethyl-1,2,3,4-tetrahydro-quinoline-6-carboxylic acid] belongs 1.25; to `CC(C)Oc1ccc(-c2cccc(C3Nc4ccc(C(=O)NS(C)(=O)=O)cc4CC3(C)C)c2)cc1` (centres unmarked) [Example 85, N-[2-(4′-Isopropoxy-biphenyl-3-yl)-3,3-dimethyl-1,2,3,4-tetrahydro-quinoline-6-carbonyl]-methanesulfonamide], 1.29; to `CC(C)Oc1ccc(-c2cccc(C3Nc4ccc(C(=O)NS(=O)(=O)C5CC5)cc4CC3(C)C)c2)cc1` (centres unmarked) [Example 86, Cyclopropanesulfonic acid [2-(4′-isopropoxy-biphenyl-3-yl)-3,3-dimethyl-1,2,3,4-tetrahydro-quinoline-6-carbonyl]-amide], 2.74.
